Source: patent publication US4568690A, “1-Methyl-5-p-methylbenzoylpyrrole-2-acetamidoacetanilides with antiinflammatory, analgesic, antipyretic and anti-platelet aggregant activity” (priority 1983, dated 1986)

Assays:
gastric mucosa = test: gastric tolerance (ulcerogenic activity); conditions: orally, four consecutive days; for Mean number severity: severity scale 0-5
Protocol: This was studied by testing ulcerogenic activity in male Wistar rats weighing an average of 180 g, using groups of 10 animals each. Three doses of each substance were used, and one group of animals was treated with vehicle only, in a volume of 10 ml/g body weight. Each dose was administered orally for four consecutive days, and the rats were killed on the fifth day and autopsied. The ulcerogenic effect was evaluated on the following scale:
(1) each hemorrhage point >1 mm was evaluated as 1 lesion
(2) the hemorrhage points <1 were counted as follows:
(b) from 1 to 19 2 lesions
(c) from 1 to 29 3 lesions
(2) gastric mucosa irritation
(3) hemorrhage points <1 mm
(4) hemorrhage points from 1 to 3 mm
(5) hemorrhage points >3 mm
This scale was used to calculate the following index of gastric damage: [formula]

[1] = system: platelet aggregation (ADP-induced); test: in vitro anti-platelet aggregant activity (Born's method, ADP); format: cell-based, rat; conditions: Rattus norvegicus, Platelet, ADP 7.08 μmol/l, read-out: Inhibition % (platelet aggregation)
Protocol: This activity was studied in vitro following Born's method (G. W. R. Born, Nature, 194, 937 (1962)) and inducing platelet aggregation with ADP. […] For the aggregation test, 0.2 ml of platelet rich plasma was mixed with a NaCl solution (0.9%) to which the test substance was added up to a final volume of 0.6 ml. Incubation was fixed at 3 minutes at 27° C. After aggregation was induced with ADP, the course of the aggregation was monitored continuously with an Elvi 840 Aggregometer (Elvi Logos--Milan). The antiaggregant effects were determined by the difference in the light transmission of the sample with respect to that of the ADP control. The test compound was compared with aspirin, which has known antiplatelet aggregant activity (H. J. Weiss et al., J. Clin. Inv., 47, 2169 (1968); Platelet Aggregation and Drugs, edited by L. Caprino and E. C. Rossi, page 235, Academic Press (London), 1974).
Table VI reports the inhibition of platelet aggregation with various doses of the compounds tested at a constant ADP concentration.

[2] = system: hyperthermia induced by dry purified beer yeast; test: antipyretic activity, beer yeast-induced hyperthermia; format: in vivo, Wistar strain male albino rats
Protocol: (§1) Preparations of the compound were administered orally and/or parenterally in a suspension in 0.59% carboxymethylcellulose in pH neutral physiological saline.
This effect was evaluated by inducing hyperthermia in Wistar strain male albino rats with an average weight of 250±10 g, injecting them intraperitoneally with a 10% suspension of dry purified beer yeast (Carlo Erba) in a volume of 10 ml/Kg of body weight, according to the method of S. Wong et al. (J. Pharmac. Exp. Ther., 185 (1), 127 (1973)).

in vivo = conditions: rat, ip
carragenin-induced edema = carragenin-induced edema test (antinflammatory activity); format: in vivo, rats
Protocol: as §1
This effect was evaluated with an experimental model reproducing actue inflammation in rats: the carragenin-induced edema test was used, according to the method of C. A. Winter (G. Pharmac. Exp. Ther., 141, 369 (1963)). Table III reports the compounds tested, their concentrations, administration routes and relative percent edema inhibition.

[3] = system: p-phenylquinone-induced writhing; test: p-phenylquinone-induced writhing test (analgesic activity); format: in vivo; conditions: an hour after administration
Protocol: as §1
The determination was made an hour after administration of the product. The inhibitory effect on abdominal contractions induced by phenyl-p-quinone was calculated as follows: [formula]
Table IV reports the doses, the administration routes and their effectiveness expressed as % protection.

Cc1ccc(C(=O)c2ccc(CC(=O)NCC(=O)Nc3cccc(C)c3C)n2C)cc1 [Compound 1f]
Mean number lesions (gastric mucosa; 50 mg/kg): 1
Mean number severity (gastric mucosa; 50 mg/kg): 1
Mean number lesions (gastric mucosa; 100 mg/kg): 2
Mean number severity (gastric mucosa; 100 mg/kg): 3
Mean number lesions (gastric mucosa; 200 mg/kg): 3
Mean number severity (gastric mucosa; 200 mg/kg): 3
inhibition at 1 µg/mL ([1]; 1 γ/ml): 22%
inhibition at 5 µg/mL ([1]; 5 γ/ml): 75%
inhibition at 10 µg/mL ([1]; 10 γ/ml): 90%
Temperature decrease % ([2]; i.p., 50 mg/kg, 1 h): 12.1%
Temperature decrease % ([2]; i.p., 50 mg/kg, 2 h): 25.0%
Temperature decrease % ([2]; i.p., 50 mg/kg, 3 h): 29.8%
Temperature decrease % ([2]; i.p., 75 mg/kg, 1 h): 16.3%
Temperature decrease % ([2]; i.p., 75 mg/kg, 2 h): 30.1%
Temperature decrease % ([2]; i.p., 75 mg/kg, 3 h): 35.1%
Temperature decrease % ([2]; i.p., 100 mg/kg, 1 h): 38.7%
Temperature decrease % ([2]; i.p., 100 mg/kg, 2 h): 43.0%
Temperature decrease % ([2]; i.p., 100 mg/kg, 3 h): 40.0%
Temperature decrease % ([2]; os, 50 mg/kg, 1 h): 15.1%
Temperature decrease % ([2]; os, 50 mg/kg, 6 h): 20.0%
Temperature decrease % ([2]; os, 50 mg/kg, 24 h): 28.7%
Temperature decrease % ([2]; os, 75 mg/kg, 1 h): 18.2%
Temperature decrease % ([2]; os, 75 mg/kg, 6 h): 29.5%
Temperature decrease % ([2]; os, 75 mg/kg, 24 h): 28.7%
Temperature decrease % ([2]; os, 100 mg/kg, 1 h): 22.1%
Temperature decrease % ([2]; os, 100 mg/kg, 6 h): 32.0%
Temperature decrease % ([2]; os, 100 mg/kg, 24 h): 38.1%
LD50 (in vivo): 1100 mg/kg
Oedema inhibition % (carragenin-induced edema; i.p., 10 mg/kg, 3 h): 37.1%
Oedema inhibition % (carragenin-induced edema; i.p., 10 mg/kg, 6 h): 33.4%
Oedema inhibition % (carragenin-induced edema; i.p., 10 mg/kg, 24 h): 0.0%
Oedema inhibition % (carragenin-induced edema; i.p., 50 mg/kg, 3 h): 51.6%
Oedema inhibition % (carragenin-induced edema; i.p., 50 mg/kg, 6 h): 53.9%
Oedema inhibition % (carragenin-induced edema; i.p., 50 mg/kg, 24 h): 4.2%
Oedema inhibition % (carragenin-induced edema; i.p., 100 mg/kg, 3 h): 72.5%
Oedema inhibition % (carragenin-induced edema; i.p., 100 mg/kg, 6 h): 70.0%
Oedema inhibition % (carragenin-induced edema; i.p., 100 mg/kg, 24 h): 19.1%
Oedema inhibition % (carragenin-induced edema; os, 10 mg/kg, 3 h): 32.6%
Oedema inhibition % (carragenin-induced edema; os, 10 mg/kg, 6 h): 34.1%
Oedema inhibition % (carragenin-induced edema; os, 10 mg/kg, 24 h): 0.0%
Oedema inhibition % (carragenin-induced edema; os, 50 mg/kg, 3 h): 49.1%
Oedema inhibition % (carragenin-induced edema; os, 50 mg/kg, 6 h): 49.0%
Oedema inhibition % (carragenin-induced edema; os, 50 mg/kg, 24 h): 3.4%
Oedema inhibition % (carragenin-induced edema; os, 100 mg/kg, 3 h): 69.7%
Oedema inhibition % (carragenin-induced edema; os, 100 mg/kg, 6 h): 69.0%
Oedema inhibition % (carragenin-induced edema; os, 100 mg/kg, 24 h): 22.1%
Protection % ([3]; i.p., 5 mg/kg): 15.3%
Protection % ([3]; i.p., 10 mg/kg): 47.0%
Protection % ([3]; i.p., 20 mg/kg): 75.0%
Protection % ([3]; os, 5 mg/kg): 18.0%
Protection % ([3]; os, 10 mg/kg): 42.1%
Protection % ([3]; os, 20 mg/kg): 70.3%

Cc1ccc(C(=O)c2ccc(CC(=O)O)n2C)cc1 [Tolmetin Na.2H2 O, reference compound]
Mean number lesions (gastric mucosa; 50 mg/kg): 2
Mean number severity (gastric mucosa; 50 mg/kg): 2
Mean number lesions (gastric mucosa; 100 mg/kg): 2.5
Mean number severity (gastric mucosa; 100 mg/kg): 3.5
Mean number lesions (gastric mucosa; 200 mg/kg): 3
Mean number severity (gastric mucosa; 200 mg/kg): 4
Temperature decrease % ([2]; i.p., 50 mg/kg, 1 h): 16.0%
Temperature decrease % ([2]; i.p., 50 mg/kg, 2 h): 19.0%
Temperature decrease % ([2]; i.p., 50 mg/kg, 3 h): 31.0%
Temperature decrease % ([2]; i.p., 75 mg/kg, 1 h): 20.0%
Temperature decrease % ([2]; i.p., 75 mg/kg, 2 h): 29.2%
Temperature decrease % ([2]; i.p., 75 mg/kg, 3 h): 34.7%
Temperature decrease % ([2]; i.p., 100 mg/kg, 1 h): 28.0%
Temperature decrease % ([2]; i.p., 100 mg/kg, 2 h): 39.1%
Temperature decrease % ([2]; i.p., 100 mg/kg, 3 h): 31.3%
Temperature decrease % ([2]; os, 50 mg/kg, 1 h): 18.0%
Temperature decrease % ([2]; os, 50 mg/kg, 6 h): 20.0%
Temperature decrease % ([2]; os, 50 mg/kg, 24 h): 29.5%
Temperature decrease % ([2]; os, 75 mg/kg, 1 h): 20.0%
Temperature decrease % ([2]; os, 75 mg/kg, 6 h): 26.0%
Temperature decrease % ([2]; os, 75 mg/kg, 24 h): 27.0%
Temperature decrease % ([2]; os, 100 mg/kg, 1 h): 32.0%
Temperature decrease % ([2]; os, 100 mg/kg, 6 h): 30.9%
Temperature decrease % ([2]; os, 100 mg/kg, 24 h): 47.2%
Oedema inhibition % (carragenin-induced edema; i.p., 10 mg/kg, 3 h): 33.7%
Oedema inhibition % (carragenin-induced edema; i.p., 10 mg/kg, 6 h): 30.1%
Oedema inhibition % (carragenin-induced edema; i.p., 10 mg/kg, 24 h): 0.0%
Oedema inhibition % (carragenin-induced edema; i.p., 50 mg/kg, 3 h): 47.1%
Oedema inhibition % (carragenin-induced edema; i.p., 50 mg/kg, 6 h): 44.0%
Oedema inhibition % (carragenin-induced edema; i.p., 50 mg/kg, 24 h): 0.0%
Oedema inhibition % (carragenin-induced edema; i.p., 100 mg/kg, 3 h): 58.3%
Oedema inhibition % (carragenin-induced edema; i.p., 100 mg/kg, 6 h): 52.2%
Oedema inhibition % (carragenin-induced edema; i.p., 100 mg/kg, 24 h): 5.3%
Oedema inhibition % (carragenin-induced edema; os, 10 mg/kg, 3 h): 32.0%
Oedema inhibition % (carragenin-induced edema; os, 10 mg/kg, 6 h): 20.0%
Oedema inhibition % (carragenin-induced edema; os, 10 mg/kg, 24 h): 0.0%
Oedema inhibition % (carragenin-induced edema; os, 50 mg/kg, 3 h): 46.8%
Oedema inhibition % (carragenin-induced edema; os, 50 mg/kg, 6 h): 45.0%
Oedema inhibition % (carragenin-induced edema; os, 50 mg/kg, 24 h): 0.0%
Oedema inhibition % (carragenin-induced edema; os, 100 mg/kg, 3 h): 56.1%
Oedema inhibition % (carragenin-induced edema; os, 100 mg/kg, 6 h): 54.3%
Oedema inhibition % (carragenin-induced edema; os, 100 mg/kg, 24 h): 8.9%
Protection % ([3]; i.p., 5 mg/kg): 16.5%
Protection % ([3]; i.p., 10 mg/kg): 46.2%
Protection % ([3]; i.p., 20 mg/kg): 69.3%
Protection % ([3]; os, 5 mg/kg): 15.0%
Protection % ([3]; os, 10 mg/kg): 40.6%
Protection % ([3]; os, 20 mg/kg): 62.0%
